This series can be described thus: FFA solubility at different formulation pH at constant PS20 concentration, fit to modified Henderson-Hasselbalch equation. As to conditions: constant of the 'pH term' of the FFA solubility model (Equation 1); for solubility: formulation containing PS20, aqueous with cosolvent or surfactant or cyclodextrin, read-out: Solubility of the non-ionized FFA (β1); for pKa: formulation containing polysorbate 20 (PS20), read-out: Experimentally determined pKa (β2). The format is physicochemical. As to the method: To create the model, first, FFA solubility was measured at different formulation pH's at a constant PS20 concentration. […] Second, FFA solubility was measured at different PS20 concentrations at a constant pH.

Structures are written as SMILES. In brackets after ≈: the same amount, converted by molar mass.

`CCCCCCCCCCCC(=O)O` [Lauric (C12) Acid, lauric acid]: the solubility was 9.97 µg/mL (≈ 49.8 µM) and the pKa was 5.71.
For `CCCCCCCCCCCCCC(=O)O` [Myristic (C14) Acid, myristic acid] the same measures were 3.87 µg/mL (≈ 16.9 µM) and 6.67.

These data come from US12691178B2, “Polysorbate mixtures having modified fatty acid ester distribution” (Genentech, Inc., priority 2020, dated 2026).
